# Assay results as given in US5783562A, “Luteinizing hormone releasing hormone analogs” (Asta Medica Aktiengesellschaft, priority 1990, dated 1998).
# Read-outs that look alike come from different tables or passages of the source. Non-standard residues stand in square brackets, D forms with d. Residues, ends and D or L forms follow the SMILES beside them. dPhe(4-Cl) = N[C@H](Cc1ccc(Cl)cc1)C(=O)O; d2Nal = N[C@H](Cc1ccc2ccccc2c1)C(=O)O; d3Pal = N[C@H](Cc1cccnc1)C(=O)O
# Legend:
# mast cells [1] = type: cell-based, rat
# Description: The healthy, adult, male SD rats (BW 200-250 g) used in this experiment were housed in the same conditions as for the adult, female SD rats above. After anesthetizing with CO2, the peritoneal cavity was washed with 50 ml of PIPES AC medium containing 20 units of heparin. Following centrifugation at 200×g for 8 min. at 4° C., the cells were washed again and resuspended to a concentration of 8-to-24×10^5 total leukocytes/ml in […]. This suspension contained approximately 5-10% mast cells. Washed cells were used immediately after collection and were prewarmed for 5 min. at 37° C. prior to pipetting 0.3 ml aliquots into polystyrene tubes containing 0.3 ml of diluted peptide. The mixtures were incubated for 15 min. at 37° C., and the reaction was stopped by centrifugation at 400×g for 15 min. at 4° C. The supernatants were assayed for histamine content by manual fluorometric assay method after successful extraction with n-butanol and n-heptane. The histamine content can be obtained from the histamine standard curve (see below). The percentage of histamine release can be calculated from the following equation: [formula] where E is the fluorometric reading of the experimental sample, B is the fluorometric reading of samples with cells and buffer only, and C is the fluorometric reading of "complete" samples (cells treated with HCIO4). The standard curve can be obtained by plotting the OD values on a fluorometer at 350 nm/450 nm (activation/fluorescent) against the concentrations of serially diluted solutions of accurately weighed histamine hydrochloride. The relative parameter (r) of the histamine standard curve can be 0.9998, and the lowest detectable concentration of histamine is 0.5 ng/ml. The ED50 value of a peptide can be determined from the dose response curves obtained by plotting the histamine release versus the peptide concentration on semilogarithmic paper. All peptide samples should be tested with mast cells from a minimum of 3 different rats.
# [2] = Water-solubility / hydrophilicity of the peptides; type: physicochemical
# mast cells [3] = details: neuropeptide SP, background; cited from earlier work
# rat ovulation = assay: Corbin's rat antiovulation method (antiovulatory activity, AOA); type: in vivo; details: in saline, at noon of proestrus, female SD rats
# Description: Corbin's rat antiovulation method was used in the present invention. Healthy, adult, female SD rats (BW 200-250 g) were used in this experiment. All animals were maintained at 22°-24° C. and on a 14 hr./10 hr. (light/dark) schedule. They were given standard food and water ad libitum. Only those rats showing at least two consecutive 4-day estrous cycles in vaginal smear examination could be used in this experiment. The rats were given peptides (LHRH antagonists) at noon of proestrus with different doses in saline solution. The rats were sacrificed the next day, and both portions of their oviducts were examined using a dissecting microscope in order to determine the ovum number. The rats were divided into several groups according to the dosing, and each group consisted of about 10 rats. The control group, which was given an equivalent amount of saline, consisted of 9-10 rats. […] Evaluation of Histamine Releasing Activity
molecule,measurement,setting,value
CC(=O)N[C@H](Cc1ccc2ccccc2c1)C(=O)N[C@H](Cc1ccc(Cl)cc1)C(=O)N[C@H](Cc1ccc(O)cc1)C(=O)N[C@@H](CO)C(=O)N[C@@H](CCCCN)C(=O)N[C@H](Cc1cccnc1)C(=O)N[C@@H](CC(C)C)C(=O)N[C@@H](CCCNC(=N)N)C(=O)N1CCC[C@H]1C(=O)N[C@H](C)C(N)=O [Compound 4] (Ac-[d2Nal][dPhe(4-Cl)][dY]SK[d3Pal]LRP[dA]-NH2),HRA (μg/ml) ED50 ± SEM,mast cells [1],6.1 µg/mL
"CC(=O)N[C@H](Cc1ccc2ccccc2c1)C(=O)N[C@H](Cc1ccc(Cl)cc1)C(=O)N[C@H](Cc1cccnc1)C(=O)N[C@@H](CO)C(=O)N[C@@H](Cc1ccc(O)cc1)C(=O)N[C@H](Cc1cccnc1)C(=O)N[C@@H](CC(C)C)C(=O)N[C@@H](CCCNC(=N)N)C(=O)N1CCC[C@H]1C(=O)N[C@H](C)C(N)=O [III, NAc-D2Nal^1 -DpClPhe^2 -D3Pal^3 -Ser^4 -Tyr^5 -D3Pal^6 -Leu^7 -Arg^8 -Pro^9 -DAla^10 -NH2] (Ac-[d2Nal][dPhe(4-Cl)][d3Pal]SY[d3Pal]LRP[dA]-NH2)",HRA (μg/ml) ED50 ± SEM,mast cells [1],9.8 µg/mL
"CC(=O)N[C@H](Cc1ccc2ccccc2c1)C(=O)N[C@H](Cc1ccc(Cl)cc1)C(=O)N[C@H](Cc1cccnc1)C(=O)N[C@@H](CO)C(=O)N[C@@H](CCCNC(=N)N)C(=O)N[C@H](Cc1cccnc1)C(=O)N[C@@H](CC(C)C)C(=O)N[C@@H](CCCNC(=N)N)C(=O)N1CCC[C@H]1C(=O)N[C@H](C)C(N)=O [IV, NAc-D2Nal^1 -DpClPhe^2 -D3Pal^3 -Ser^4 -Arg^5 -D3Pal^6 -Leu^7 -Arg^8 -Pro^9 -DAla^10 -NH2] (Ac-[d2Nal][dPhe(4-Cl)][d3Pal]SR[d3Pal]LRP[dA]-NH2)",hydrophilicity,[2],very strong hydrophilicity
Arg^1 -Pro^2 -Lys^3 -Pro^4 -Gln^5 -Gln^6 -Phe^7 -Phe^8 -Gly^9 -Leu^10 -Met^11 -NH2 [neuropeptide SP],ED50 for HRA,mast cells [3],5 to 15 µM
NAc-D2Nal^1 -DpClPhe^2 -DPhe^3 Ser^4 -Arg^5 -D3Pal^6 -Leu^7 -Arg^8 -Pro^9 -DAla^10 -NH2 [V],HRA (μg/ml) ED50 ± SEM,"mast cells [1]; in vitro histamine release, rat peritoneal mast cells",7.4 µg/mL
same,% AOA/μg 0.25,rat ovulation; 0.25 μg,29%
same,% AOA/μg 0.5,rat ovulation; 0.5 μg,60%
same,% AOA/μg 1.0,rat ovulation; 1.0 μg,100%
